The nature of assay [1]: Cytotoxicity against human MDST8 cells after 72 hrs by CCK8 assay. It counts as functional, cell-based. Background: Formazan colour is commonly taken as a measure of viable cells.
Assay [2] concerns MCF7. The experiment in a line: Cytotoxicity against human MCF7 cells after 72 hrs by CCK8 assay. The format is functional, cell-based.
The subject of assay [3] is MCF7. The experiment in a line: Cytotoxicity against human MCF7 cells at 1 x 10^-5 M after 72 hrs by CCK8 assay. The settings on record: for inhibition at 10 µM: MCF7, 72 h. The format is functional.
A short description of assay [4]: (§1) Cytotoxicity against human MDST8 cells at 1 x 10^-5 M after 72 hrs by CCK8 assay. It counts as functional. The settings on record: MDST8, 72 h.
Assay [5] is described as follows: Cytotoxicity against human MDST8 cells at 1 x 10^-8 M after 72 hrs by CCK8 assay. The settings on record: MDST8, 72 h. It counts as functional.
For assay [6], the system named is MDST8. The assay is described as §1. The format is functional.
Where [7] appears, read: Homo sapiens, MDST8, 72 h, read-out: IC50.
The mark [8] stands for this setting: Homo sapiens, MCF7, 72 h, read-out: IC50.

Structures are written as SMILES. Active and inactive are the calls of the source. The rule behind the calls is not given here. Bounds are passed on as bounds.

With `O=C(N[C@H](CO)Cc1ccccc1)[C@H]1OC(O)(CO)[C@@H](O)[C@@H]1O` (single isomer, unassigned), the IC50 entry in assay [1] (mdst8) and in assay [2] (mcf7) was “Not Active” in each case.

As for `O=C(NCCCO)[C@H]1O[C@](O)(CO)[C@@H](O)[C@@H]1O`, the half-inhibitory concentration (IC50) (as a rule, the point on the concentration scale where inhibition reaches its midpoint) in assay [1] (mdst8) is on record as “Not Active”; in assay [2] (mcf7), “Active”. Also, the inhibition – broadly, the percentage by which the read-out fell short of the control – at 10 µM in assay [3] is more than 60%.

With `CC(C)[C@@H](CO)NC(=O)[C@H]1OC(O)(CO)[C@@H](O)[C@@H]1O` (single isomer, unassigned), the IC50 entry in assay [1] (mdst8) is given as “Active”. Moreover, testing at 10 µM in assay [4] gave an inhibition of 80%.

With `O=c1[nH]cc(F)c(=O)[nH]1` [FLUOROURACIL], the IC50 in assay [1] (setting [7]) was 64 nM; in assay [2] (setting [8]), 520 nM. The inhibition at 10 µM was 60% in assay [3] and 83% in assay [4].

As to `O=C(Nc1ccncc1)[C@H]1O[C@@H](O)[C@H](O)[C@@H](O)[C@@H]1O`, the IC50 in assay [2] (setting [8]) is 190 nM.

In the case of `O=C(N[C@H](CO)c1ccccc1)[C@H]1O[C@](O)(CO)[C@@H](O)[C@@H]1O`, the IC50 entry in assay [1] (mdst8) and in assay [2] (mcf7) was “Not Active” throughout.

As to `O=C(NCCO)[C@H]1O[C@](O)(CO)[C@@H](O)[C@@H]1O`, the IC50 entry is reported as “Not Active” in assay [1] (mdst8) and “Active” in assay [2] (mcf7). In assay [3], this molecule showed an inhibition at 10 µM of more than 60%.

Turning to `CC(C)(C)[C@@H](CO)NC(=O)[C@H]1OC(O)(CO)[C@@H](O)[C@@H]1O` (single isomer, unassigned), in assay [3], the inhibition result is “Active”. Besides, the half-inhibitory concentration (IC50) result in assay [2] (mcf7) is “Active”.

On to `C=CCOC(=O)[C@H]1O[C@@H](OC(C)=O)[C@H](OC(C)=O)[C@@H](OC(C)=O)[C@@H]1OC(C)=O`, for which the IC50 in assay [2] (setting [8]) was 4500 nM.

`CC(=O)O[C@@H]1O[C@H](C(=O)NCCCBr)[C@@H](OC(C)=O)[C@H](OC(C)=O)[C@H]1OC(C)=O`: the results for the IC50 in assay [1] (setting [7]) and in assay [2] (mcf7) were 100 nM and “Not Active”, respectively. This molecule registered an inhibition at 0.01 µM in assay [5] of 50%. Moreover, in assay [4], the inhibition at 10 µM is more than 90%.

Consider `CC(=O)O[C@@H]1O[C@H](C(=O)NCCO)[C@@H](OC(C)=O)[C@H](OC(C)=O)[C@H]1OC(C)=O`, for which the results for the IC50 entry in assay [1] (mdst8) and in assay [2] (mcf7) were “Not Active” and “Active”, respectively. The molecule also returned an inhibition at 10 µM in assay [3] of more than 60%.

As to `CC(=O)O[C@@H]1O[C@H](C(=O)N[C@H]2CN(Cc3ccccc3)C[C@@H]2NC(=O)[C@H]2O[C@@H](OC(C)=O)[C@H](OC(C)=O)[C@@H](OC(C)=O)[C@@H]2OC(C)=O)[C@@H](OC(C)=O)[C@H](OC(C)=O)[C@H]1OC(C)=O`, in assay [1] (setting [7]), the IC50 was determined as 100 nM.

Consider `CC(=O)O[C@@H]1O[C@H](C(=O)N[C@H](CO)Cc2ccccc2)[C@@H](OC(C)=O)[C@H](OC(C)=O)[C@H]1OC(C)=O`, for which the IC50 result in assay [1] (mdst8) and in assay [2] (mcf7) was “Not Active” throughout.

Regarding `CC(=O)O[C@@H]1O[C@H](C(=O)N[C@H](CO)c2ccccc2)[C@@H](OC(C)=O)[C@H](OC(C)=O)[C@H]1OC(C)=O`, the IC50 entry in assay [1] (mdst8) and in assay [2] (mcf7) was “Not Active” in each case.

Turning to `CC(=O)O[C@@H]1O[C@H](C(=O)NCCCO)[C@@H](OC(C)=O)[C@H](OC(C)=O)[C@H]1OC(C)=O`, the IC50 entry is reported as “Not Active” in assay [1] (mdst8) and “Active” in assay [2] (mcf7). In assay [3], the inhibition at 10 µM is more than 60%.

As for `CC(=O)O[C@@H]1O[C@H](C(=O)N[C@H](CO)C(C)C)[C@@H](OC(C)=O)[C@H](OC(C)=O)[C@H]1OC(C)=O`, the inhibition result in assay [6] was “Active”.

Take `CC(=O)O[C@@H]1O[C@H](C(=O)N2CCCC2)[C@@H](OC(C)=O)[C@H](OC(C)=O)[C@H]1OC(C)=O`: the IC50 in assay [2] (setting [8]) worked out at 1000 nM.

For the origin of these results see ChEMBL document CHEMBL3751790, “Novel hydroxyamides and amides containing D-glucopyranose or D-fructose units: Biological assays in MCF-7 and MDST8 cell lines” (Bioorg Med Chem Lett, 2016).
